These results are taken from ChEMBL document CHEMBL4831493 (Eur J Med Chem, 2021).

The subject of one data set is HT-22. Nature of the data set: Neuroprotective activity in mouse HT-22 cells assessed as glutamate-induced cell mortality at 6 uM preincubated for 1 hr followed by addition of glutamate and measured after 24 hrs (reference value: 58%). In kind it is functional. The conditions noted are these: time 25 hrs.
Data set [1] can be described thus: AUC (0 to infinity) in Sprague-Dawley rat at 1 mg/kg, iv measured up to 24 hrs by LC-MS/MS analysis. The conditions noted are these: in vivo. In kind it is ADME, organism-based. Also noted: route intravenous, dose 1 mg/kg, time <=24.
Data set [2] can be described thus: Drug level in ICR mouse plasma at 10 mg/kg, po measured after 1 hr by LC/MS/MS analysis. In kind it is ADME, organism-based.
Data set [3] in a line: Drug level in ICR mouse brain at 10 mg/kg, po measured after 1 hr by LC/MS/MS analysis. It is filed as ADME, organism-based. The conditions noted are these: read-out: Ct.
The nature of data set [4]: Oral bioavailability in Sprague-Dawley rat at 10 mg/kg measured up to 24 hrs by LC-MS/MS analysis. It is filed as ADME, organism-based. The conditions noted are these: in vivo.
Data set [5] concerns the target Acetylcholinesterase (Electrophorus electricus, UniProt O42275). Nature of the data set: Inhibition of electric eel recombinant AChE preincubated for 1 min in presence of DNTB followed by addition of acetylthiocholine iodide substrate and measured after 20 mins by Ellman's method. In general terms: DTNB colorimetry detects thiols as they appear.
Data set [6] can be described thus: MRT (0 to infinity) in Sprague-Dawley rat at 10 mg/kg, po measured up to 24 hrs by LC-MS/MS analysis. The conditions noted are these: in vivo. It is filed as ADME, organism-based.
Data set [7] concerns the target Glycogen synthase kinase-3 beta (Homo sapiens, UniProt P49841). Nature of the data set: Inhibition of human recombinant N-terminal His-tagged GSK3beta expressed in Escherichia coli using RRRPASVPPSPSLS RHS(pS)HQRR as substrate incubated for 30 mins in presence of ATP by Kinase-Glo reagent based luminescence assay.
Data set [8] addresses Acetylcholinesterase (Homo sapiens, UniProt P22303). Nature of the data set: Inhibition of human recombinant AChE preincubated for 1 min in presence of DNTB followed by addition of acetylthiocholine iodide substrate and measured after 20 mins by Ellman's method.
Data set [9] in a line: Cmax in Sprague-Dawley rat at 1 mg/kg, iv measured up to 24 hrs by LC-MS/MS analysis. In kind it is ADME, organism-based. Also on record: route intravenous, dose 1 mg/kg, time <=24. The conditions noted are these: in vivo.
The nature of data set [10]: Ratio of drug level in brain to plasma of ICR mouse at 10 mg/kg, po measured after 1 hr by LC/MS/MS analysis. The conditions noted are these: brain and plasma. In kind it is ADME, organism-based.
The target in data set [11] is T1, Acetylcholinesterase (Mus musculus) (UniProt P21836).
T1 sequence (whole entry): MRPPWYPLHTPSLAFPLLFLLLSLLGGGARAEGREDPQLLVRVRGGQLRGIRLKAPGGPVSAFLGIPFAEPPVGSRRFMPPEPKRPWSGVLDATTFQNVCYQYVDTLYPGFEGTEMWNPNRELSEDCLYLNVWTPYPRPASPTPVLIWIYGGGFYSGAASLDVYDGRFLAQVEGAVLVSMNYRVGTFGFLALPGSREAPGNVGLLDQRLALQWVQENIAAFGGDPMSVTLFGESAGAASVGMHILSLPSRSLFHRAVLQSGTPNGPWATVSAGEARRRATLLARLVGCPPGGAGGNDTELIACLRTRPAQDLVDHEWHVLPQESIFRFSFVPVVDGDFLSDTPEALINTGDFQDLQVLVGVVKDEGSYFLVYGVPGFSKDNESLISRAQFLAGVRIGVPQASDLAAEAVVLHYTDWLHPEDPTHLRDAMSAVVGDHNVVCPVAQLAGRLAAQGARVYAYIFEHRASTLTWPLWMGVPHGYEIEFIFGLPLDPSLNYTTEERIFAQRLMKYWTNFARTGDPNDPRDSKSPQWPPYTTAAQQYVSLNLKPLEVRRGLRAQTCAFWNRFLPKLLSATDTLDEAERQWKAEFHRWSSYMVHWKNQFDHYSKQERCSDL
The conditions noted are these: ICR, dose 10.0 mg/kg, time 1.5 hrs.

Data set [12] deals with T1, Acetylcholinesterase (Mus musculus). The conditions noted are these: ICR, dose 10.0 mg/kg, time 1.5 hrs. This is another data set of the same source.
A short description of data set [13]: Cmax in Sprague-Dawley rat at 10 mg/kg, po measured up to 24 hrs by LC-MS/MS analysis. In kind it is ADME, organism-based. Also noted: route oral, dose 10 mg/kg, time <=24. The conditions noted are these: in vivo.
Data set [14] is described as follows: MRT (0 to infinity) in Sprague-Dawley rat at 1 mg/kg, iv measured up to 24 hrs by LC-MS/MS analysis. The note with it: in vivo. It is filed as ADME, organism-based.
A short description of data set [15]: Drug level in ICR mouse brain at 10 mg/kg, po measured after 1.5 hrs by LC/MS/MS analysis. It is filed as ADME, organism-based. The conditions noted are these: read-out: Ct.
Data set [16] is described as follows: Half life in Sprague-Dawley rat at 10 mg/kg, po measured up to 24 hrs by LC-MS/MS analysis. In kind it is ADME, organism-based. The note with it: in vivo.
Data set [17] in a line: Ratio of drug level in brain to plasma of ICR mouse at 10 mg/kg, po measured after 1.5 hrs by LC/MS/MS analysis. In kind it is ADME, organism-based. The note with it: brain and plasma.
Data set [18] in a line: AUC (0 to infinity) in Sprague-Dawley rat at 10 mg/kg, po measured up to 24 hrs by LC-MS/MS analysis. It is filed as ADME, organism-based. The note with it: in vivo. Also noted: route oral, dose 10 mg/kg, time <=24.
Data set [19] in a line: Effective permeability of the compound by PAMPA-BBB assay. In kind it is ADME. The note with it: read-out: Peff. (The PAMPA barrier holds no transporters, so it reflects passive diffusion.)
Data set [20] can be described thus: Drug level in ICR mouse plasma at 10 mg/kg, po measured after 1.5 hrs by LC/MS/MS analysis. In kind it is ADME, organism-based.
A short description of data set [21]: Tmax in Sprague-Dawley rat at 10 mg/kg, po measured up to 24 hrs by LC-MS/MS analysis. The conditions noted are these: in vivo. It is filed as ADME, organism-based.
Data set [22] in a line: Half life in Sprague-Dawley rat at 1 mg/kg, iv measured up to 24 hrs by LC-MS/MS analysis. In kind it is ADME, organism-based. The conditions noted are these: in vivo.
The subject of a further data set is Mus musculus. Nature of the data set: Cognitive enhancing effect in mouse model of scopolamine-induced amnesia assessed as decrease in escape latency at 10 mg/kg/day, po measured by Morris water maze test. In kind it is functional, organism-based.

Calls of active or inactive are those of the source. The rule behind the calls is not given here.

Chain of Acetylcholinesterase (Homo sapiens, UniProt P22303) (P22303 whole entry): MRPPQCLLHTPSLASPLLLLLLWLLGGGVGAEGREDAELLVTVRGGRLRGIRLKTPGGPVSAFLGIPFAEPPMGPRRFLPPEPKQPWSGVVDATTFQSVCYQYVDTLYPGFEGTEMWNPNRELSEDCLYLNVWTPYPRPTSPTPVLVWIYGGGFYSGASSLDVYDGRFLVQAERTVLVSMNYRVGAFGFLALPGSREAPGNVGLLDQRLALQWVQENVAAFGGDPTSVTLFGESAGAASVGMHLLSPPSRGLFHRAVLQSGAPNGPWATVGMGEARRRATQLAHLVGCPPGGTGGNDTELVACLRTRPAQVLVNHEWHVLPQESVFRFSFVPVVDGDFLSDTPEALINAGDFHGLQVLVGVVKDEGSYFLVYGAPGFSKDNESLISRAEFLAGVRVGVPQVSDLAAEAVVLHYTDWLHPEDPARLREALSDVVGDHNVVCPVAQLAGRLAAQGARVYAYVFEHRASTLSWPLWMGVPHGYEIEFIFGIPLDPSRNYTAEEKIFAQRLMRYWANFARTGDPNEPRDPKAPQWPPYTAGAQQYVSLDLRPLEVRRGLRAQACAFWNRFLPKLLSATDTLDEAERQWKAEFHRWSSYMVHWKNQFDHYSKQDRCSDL
Chain of Acetylcholinesterase (Electrophorus electricus, UniProt O42275) (O42275 whole entry): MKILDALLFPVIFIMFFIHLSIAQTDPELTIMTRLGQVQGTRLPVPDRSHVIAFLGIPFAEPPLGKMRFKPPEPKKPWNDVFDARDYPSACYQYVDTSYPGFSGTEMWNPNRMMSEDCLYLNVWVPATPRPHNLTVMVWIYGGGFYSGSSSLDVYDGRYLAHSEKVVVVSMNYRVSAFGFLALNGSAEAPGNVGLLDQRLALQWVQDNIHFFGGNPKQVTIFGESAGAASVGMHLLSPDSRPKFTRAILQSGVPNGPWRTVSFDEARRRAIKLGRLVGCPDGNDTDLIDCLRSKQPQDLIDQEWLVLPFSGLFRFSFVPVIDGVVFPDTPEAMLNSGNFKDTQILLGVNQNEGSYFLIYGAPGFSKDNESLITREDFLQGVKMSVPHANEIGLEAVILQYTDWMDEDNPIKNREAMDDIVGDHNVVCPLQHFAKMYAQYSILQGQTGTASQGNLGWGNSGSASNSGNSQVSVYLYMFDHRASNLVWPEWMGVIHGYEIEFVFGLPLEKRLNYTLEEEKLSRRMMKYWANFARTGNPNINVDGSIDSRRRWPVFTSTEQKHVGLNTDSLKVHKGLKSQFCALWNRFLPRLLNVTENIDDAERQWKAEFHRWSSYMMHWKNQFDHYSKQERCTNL
Chain of Glycogen synthase kinase-3 beta (P49841 whole entry): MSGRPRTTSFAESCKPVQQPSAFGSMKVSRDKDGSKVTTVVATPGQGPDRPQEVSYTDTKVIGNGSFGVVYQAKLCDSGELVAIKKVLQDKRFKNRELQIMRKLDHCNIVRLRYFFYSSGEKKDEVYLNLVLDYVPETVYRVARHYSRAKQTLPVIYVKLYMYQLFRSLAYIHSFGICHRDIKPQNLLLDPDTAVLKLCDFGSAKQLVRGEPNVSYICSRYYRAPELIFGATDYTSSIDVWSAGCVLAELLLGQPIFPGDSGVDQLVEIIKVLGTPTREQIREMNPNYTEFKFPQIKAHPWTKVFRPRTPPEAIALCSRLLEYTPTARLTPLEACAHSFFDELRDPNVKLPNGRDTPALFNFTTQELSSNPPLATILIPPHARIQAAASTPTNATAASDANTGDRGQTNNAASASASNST

The AUC(0-inf) is the area under the concentration-time curve extrapolated to infinity. By bioavailability is commonly meant dose-corrected exposure relative to a reference, in per cent. Read a high bioavailability as good availability. As usually defined, the IC50 is the concentration at which inhibition is half-maximal. As usually defined, the MRT inf is a mean duration of stay, worked out from the concentration-time curve. As a reminder, the Cmax is the maximum level reached in the sampled fluid or tissue. As usually defined, the Kp is the ratio of the level in a tissue or fluid to that in plasma or blood. As a reminder, the inhibition is how much of the control response was suppressed. Lower therefore signals little suppression. A word on the half-life: it is how long it takes for the measured level to halve. High values mean slow decline, low ones rapid decline. What is called Tmax is the time at which the peak concentration occurs. Regarding `O=C(Nc1cncc(OCC2CCN(Cc3ccccc3)CC2)c1)c1ccnc(NC(=O)C2CC2)c1`, the Activity with HT-22 was 66%. For the same molecule, the area under the curve AUC(0-inf) was found to be 152 ng·h/mL in data set [1] and 377 ng·h/mL in data set [18]. Moreover, the concentration at 1 h turned out to be 112 ng/g in data set [2] and 34.4 ng/g in data set [3]. In data set [4], this molecule showed a bioavailability of 24.8%. The half-inhibitory concentration (IC50) at Acetylcholinesterase [5] was determined as 1.6 nM; in data set [7] it was 23 nM; on Acetylcholinesterase [8], 2.6 nM. Moreover, the mean residence time (MRT inf) in data set [6] was found to be 8.9 h; in data set [14], 10 h. Further, the Cmax in [9] turned out to be 98.3 ng/mL; in data set [13] it was 47.1 ng/mL. Moreover, the partition ratio (Kp) at 1 h in data set [10] is 0.306. The inhibition in [11] was 48.3%; in [12] it was 73.1%. In addition, the figures for the concentration at 1.5 h in data set [15] and in data set [20] were 43.7 ng/g and 62.9 ng/g, respectively. Besides, the half-life in [16] is 6.3 h; in data set [22], 21.4 h. Moreover, the Kp at 1.5 h in data set [17] is 0.695. Further, the Papp in data set [19] was 8.2 ×10⁻⁶ cm/s. The time to peak (Tmax) in data set [21] was found to be 1.7 h. Besides, the outcome with Mus musculus was Active.
